Test results taken from patent US12297349B2, “Transparent resin composition and transparent resin molded article” (Sony Group Corporation, priority 2016, dated 2025).

Experiment: Dissolved amount (solubility) in pure water
Conditions: stirring for 30 minutes, filtering with 0.5 μm filter, insoluble matter measured
Description: The content of the water-insoluble organic sulfonic acid and/or the metal salt thereof is 0.01 to 3.0 pts·mass to 100 pts·mass of the aromatic polycarbonate resin. […] The dissolved amount per 100 g of pure water can be calculated by mixing 3 g of sample with 100 g of pure water, stirring for 30 minutes, and then filtering it with 0.5 μm filter to measure the insoluble matter.

SMILES	A dissolved amount (solubility)
O=S(=O)([O-])C(F)(F)C(F)(F)C(F)(F)C(F)(F)F.[K+] [b-2, potassium perfluorobutanesulfonate]	4.6 g/100 g of pure water
Cc1ccc(S(=O)(=O)[O-])cc1.[Na+] [b-3, sodium paratoluenesulfonic acid]	24.0 g/100 g of pure water
